# In patent publication US20070010548A1, “Compounds having inhibitive activity of phosphatidylinositol 3-kinase and methods of use thereof” (ZENTARIS GmbH, priority 2003, published 2007):
# Read-outs that look alike come from different tables or passages of the source.
# Columns and labels:
# [1] = tested on: phospho-Akt in MDA-MB-468 cells; assay: Phospho-Akt levels in MDA-MB-468 cells (PathScan phospho-Akt ELISA / immunoblotting); format: cell-based, human; settings: 50 μM, 4 hours, serum-starved MDA-MB-468 cells; DMSO alone = 100%
# Description: Because phosphorylation and activation of PKB/Akt is dependent on PI 3-K activity, PI 3-K inhibitors decrease the cellular levels of phospho-Akt. MDA-MB-468 cells show constitutively high levels of phospho-Akt as a result of abnormal activation of PI 3-K signaling.
# The effect of treatment with PI 3-K inhibitors on phospho-Akt levels in these cells was determined as follows. Cells were plated into 6-well cell culture dishes at a density of 5×10^5 cells per well in RMPI media containing 10% fetal calf serum and 2 mM L-glutamine. Twenty-four hours later, media was removed and replaced with serum-free RMPI containing 2 mM L-glutamine. The cells were serum-starved overnight.
# Compounds were diluted into serum-free media to a final concentration of 50 μM and added to the cells. The cells were incubated in the presence of PI 3-K inhibitors for 4 hours. Phospho-Akt levels were determined using one of the following methods.
# To determine phospho-Akt levels using immunoblotting, cells were washed twice with PBS and lysed in ice-cold lysis buffer (1% Triton X-100, 50 mM Hepes pH 7.4, 150 mM NaCl, 1.5mM MgCl2, 1 mM EGTA, 100 mM NaF, 10 mM Sodium Pyrophosphate, 1 mM Na(subscript: 3)VO(subscript: 4), 10% glycerol, InmM phenylmethylsulfonyl fluoride, and 10 ug/ml aprotifin). Total protein concentration was determined using a BCA assay. 30ug of total cell lysate protein was diluted into Laemmli sample buffer and loaded onto a 10% acrylamide gel, subjected to SDS-PAGE, and transferred to a PVDF membrane. The membrane was blocked with 5% bovine serum albumin and then incubated at 4° C. overnight with antibody. The membrane was washed in TBS-T (10 mM Tris-HCl pH 7.4, 150 mM NaCl, and 0.1% Tween-20) and incubated with HRP-conjugated antibody (diluted in 5% milk in TBS-T) at room temperature for 1 h. The membrane was washed extensively and the proteins were visualized by chemiluminscent detection. The compounds effects on phospho-Akt levels were observed as relative differences in the amount of phospho-Akt detected by immunoblotting.
# Effects on cellular levels of phospho-Akt following treatment with PI 3-K inhibitors were quantified using the PathScan phospho-Akt ELISA (Cell Signaling Technologies)., a sandwich ELISA for detection of phospho-Akt. The kit was used according to the manufacturer protocol. Absorbance at 450 nm was determined for each sample and used directly as equivalent of phospho-Akt levels.
# Percent decreases in phospho-Akt levels were determined by normalizing relative to blank samples (0%/O) and control samples treated with DMSO alone (1 00%).
# MA-MB-468 cells = assay: Three dimensional matrix model of tumor cell growth; format: cell-based; settings: Homo sapiens, read-out: Percent Inhibition of Tumor Cell Viability
# Description: PI 3-K inhibitors are assayed for effects on tumor cells grown in three-dimensional matrix that more closely mimics the environment of a tumor than other cell culture models. MA-MB-468 cells are mixed in a matrix solution, such as Matrigel (13D Biosciences) at 2×10 ^6 cells/ml and 100 μl of this mixture added to each well of a 24 well cell culture plate. Each well is 6.5 mm in diameter and 2×10^5 cells are added per well. Once the matrix is solidified, RMPI media containing 10% fetal calf serum and 2 mM L-glutamine is added to each well. After approximately 14 days of culture, the compounds are added to cell media at final concentrations ranging from 10 nM to 100 μM, and the cells are grown in the presence of the compounds for 7 days in RMPI media containing 0.5% fetal calf serum and 20 mM L-glutamine.
# Following this treatment, cell growth in the three dimensional matrix can be measured using a cell viability assay such as the CellTiter 96 One Solution Cell Proliferation Assay (Promega, G3582). […] of assay solution is added per well, the cells are incubated for 3 hours. Absorbance at 550 nm is determined for each well and used directly as being equivalent of cell number. In addition, live and dead cells can be distinguished and observed using fluorescence microscopy after staining with Fluorescein diacetate (Sigma), which labels live cells, and propidium iodide (Sigma), which labels dead cells.
# The PI 3-K inhibitors of the present invention show anti-proliferative effects in this model of tumor cell growth, as shown by the representative data in Table 6, which compares the anti-proliferative effects of one inhibitor compared to the effects of the benchmark PI 3-K inhibitor LY294002. The PI 3-K inhibitors of the present invention also show enhanced anti-proliferative activity when combined with other cancer drugs, for example paclitaxel or doxorubicin.
# OVCAR3 cells = assay: MTT cell proliferation/viability assay, OVCAR3 ovarian cancer cells; format: cell-based; settings: Homo sapiens
# Description: The ovarian cancer cell line SKOV3 is not altered in PI 3-K signaling and should be less sensitive to the anti-proliferative effects produced by treatment with PI 3-K inhibitors, while the OVCAR3 cell line, which is altered in PI 3-K signaling, via amplification of PI 3-K activity, should be sensitive. SKOV3 cells were seeded in 96-well cell culture plates (Greiner) at a density of 20,000 cells per well in McCoys 5A media (GibcoBRL) with 10% fetal calf serum and 20 mM L-glutamine. OVCAR3 cells were seeded at a density of 15,000 cells per well in RPMI 1640 media (GibcoBRL) containing 20 mM 1-glutamine, 0.01 ng/ml bovine insulin, 10 mM Hepes pH 7.4, 1 mM sodium pyruvate, 2.5 g/L glucose, and 20% fetal calf serum. After 24 hours, compounds were added to cell media to a final concentration of 1 μM, and the cells were grown in the presence of the compounds for 48 hours, in media containing 0.5% fetal calf serum. Viability was determined using a MTT cell proliferation assay (R and D Systems) and comparison to DMSO alone controls (100% viability). Compounds which result in reduced viability may act either by inhibiting cell proliferation or by inducing apoptosis (programmed cell death).
# Many of these also show similar selective effects on cell growth. Table 2 summarizes the results of two separate cell proliferation experiments for selected compounds of the present invention.
# [2] = OVCAR-3, 48 hours, MTT, DMSO alone controls = 100% viability, Trial 1, read-out: Trial 1 OVCAR3 (viability)
# [3] = OVCAR-3, 48 hours, MTT, DMSO alone controls = 100% viability, Trial 2, read-out: Trial 2 OVCAR3 (viability)
# [4] = OVCAR-3, average of Trial 1 and Trial 2, 48 hours, read-out: average OVCAR-3 (viability)
Compound,Approx. % decrease phospho-Akt relative to controls [1] [%],cytotoxicity at 1 µM (MA-MB-468 cells; Concentration 1 μM) [%],cytotoxicity at 5 µM (MA-MB-468 cells; Concentration 5 μM) [%],cytotoxicity at 10 µM (MA-MB-468 cells; Concentration 10 μM) [%],cytotoxicity at 50 µM (MA-MB-468 cells; Concentration 50 μM) [%],viability at 1 µM (OVCAR3 cells; [2]) [%],viability at 1 µM (OVCAR3 cells; [3]) [%],viability at 1 µM (OVCAR3 cells; [4]) [%]
CC1(C)CC(=O)C2=C(C1)Nc1c(c(C(C)(C)C)nn1C(C)(C)C)C2c1ccc(OCc2ccccc2)c(OCc2ccccc2)c1 (centres unmarked) [Compound 963985],50,10,20,30,40,,,
"Cc1ccc(C2C3=C(CC(C)(C)CC3=O)Nc3c2c(C(C)(C)C)nn3-c2ccc(C)cc2)cc1 (centres unmarked) [Compound 964028, 3-t-butyl-4-(4-methylphenyl)-7,7-dimethyl-1-(4-methylphenyl)-4,7,8,9-tetrahydro-1H-pyrazolo[3,4-b]quinolin-5(6H)-one]",40,,,,,42,45.4,43.7
"COc1ccc(-n2nc(C(C)(C)C)c3c2NC2=C(C(=O)CC(C)(C)C2)C3c2ccccc2Cl)cc1 (centres unmarked) [Compound 964076, 3-t-butyl-4-(2-chlorophenyl)-7,7-dimethyl-1-(4-methoxyphenyl)-4,7,8,9-tetrahydro-1H-pyrazolo[3,4-b]quinolin-5(6H)-one]",60,,,,,41,53.2,47.1
COc1ccc(OC)c(C2C3=C(CC(C)(C)CC3=O)Nc3c2c(C(C)(C)C)nn3-c2ccc(C)cc2C)c1 (centres unmarked) [Compound 964232],50,,,,,45,71,58
COc1ccccc1C1C2=C(CC(C)(C)CC2=O)Nc2c1c(C(C)(C)C)nn2-c1ccc(Cl)c(C)c1 (centres unmarked) [Compound 964247],30,,,,,42,43.7,42.9
CC1(C)CC(=O)C2=C(C1)Nc1c(c(C(C)(C)C)nn1-c1ccc(Cl)c(Cl)c1)C2c1cccc(OCc2ccccc2)c1 (centres unmarked) [Compound 964260],40,,,,,41,53,47
CC1(C)CC(=O)C2=C(C1)Nc1c(c(-c3ccccc3)nn1-c1cccc(F)c1)C2c1ccc(C(F)(F)F)cc1 (centres unmarked) [Compound 964661],40,,,,,36,58.9,47.5
